Results as given in patent US20240327379A1, “MANDELATE FORM OF 1-(4-(((6-AMINO-5-(4-PHENOXYPHENYL)PYRIMIDIN-4-YL)AMINO)METHYL)PIPERIDIN-1-YL)PROP-2-EN-1-ONE” (Sandoz AG, priority 2021, published 2024).

What was measured:
[1] = Thermogravimetric analysis (TGA); type: physicochemical; settings: heated from 25° C. at 10 K/min, nitrogen purge
Procedure: TGA was performed on a Mettler TGA/DSC 1 instrument. The sample (6.53 mg) was heated in a 100 microliter aluminium pan, closed with an aluminium lid, from 25 to 250° C. at a rate of 10 K/min. The lid was automatically pierced at the beginning of the measurement. Nitrogen (purge rate 30 mL/min) was used as purge gas.

[2] = Gravimetric moisture sorption (GMS); type: physicochemical; settings: (25±0.1)° C.
Procedure: Gravimetric moisture sorption was performed with an SPSx-1μ moisture sorption analyzer (ProUmid, Ulm). The measurement cycle was started at ambient relative humidity (RH) of 30%. RH was then decreased to 5% in 5% steps, followed by a further decrease to 3% and to 0%. […] Finally, RH was increased to ambient relative humidity of 30% in 5% steps. The time per step was set to a minimum of 2 hours and a maximum of 6 hours. If an equilibrium condition with a constant mass of =0.01% within 1 hour was reached before the maximum time for all examined samples the sequential humidity step was applied before the maximum time of 6 hours. If no equilibrium was achieved the consecutive humidity step was applied after the maximum time of 6 hours. The temperature was (25±0.1)° C.

- mass loss from the beginning of the measurement until about 170° C. [1]: about 0.1%
- hygroscopic behaviour ([2]; GMS 0-90% RH): slightly hygroscopic
- mass difference in the sorption cycle between 0 and 80% RH ([2]; GMS sorption cycle, 0 to 80% RH): about 0.5 w-%
- maximum uptake between 0 and 90% RH ([2]; GMS, 0 to 90% RH): about 0.6%
Structure (SMILES): C=CC(=O)N1CCC(CNc2ncnc(N)c2-c2ccc(Oc3ccccc3)cc2)CC1 [crystalline evobrutinib mandelate form]
- physical stability during moisture sorption/desorption (hysteresis, PXRD after the experiment) ([2]; GMS cycle 0-90% RH, PXRD after the experiment): no structural changes appear during the experiment
